Experimental data from patent US12516039B2, “N-linked isoquinoline amides as LRRK2 inhibitors, pharmaceutical compositions, and uses thereof” (Merck Sharp & Dohme LLC, priority 2020, dated 2026).

Target: T1, GST-tagged truncated human mutant G2019S LRRK2 (Homo sapiens, UniProt Q5S007, G2019S)
T1 construct: GST-tagged truncated human mutant G2019S LRRK2; purchased Life Technologies Corporation (Carlsbad, CA)
Assay: LRRK2 G2019S Km ATP LanthaScreen assay
Assay type: biochemical
Details: 134 μM ATP (Km ATP), LRRKtide substrate, mean of several tests, read-out: LRRK2 pIC50 (converted)
Procedure, shortened: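 IC50 values are means of repeat runs, fitted with a 4-parameter logistic to the 520/495 nm TR-FRET ratio from a Tb-labeled anti-phospho-LRRKtide antibody added with EDTA. Reactions ran 90 min at room temperature at Km ATP (134 μM) with fluorescein-LRRKtide, after 15-min compound preincubation with truncated GST-tagged G2019S LRRK2.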

T1 sequence (Q5S007 970-2527 G2019S limits assumed): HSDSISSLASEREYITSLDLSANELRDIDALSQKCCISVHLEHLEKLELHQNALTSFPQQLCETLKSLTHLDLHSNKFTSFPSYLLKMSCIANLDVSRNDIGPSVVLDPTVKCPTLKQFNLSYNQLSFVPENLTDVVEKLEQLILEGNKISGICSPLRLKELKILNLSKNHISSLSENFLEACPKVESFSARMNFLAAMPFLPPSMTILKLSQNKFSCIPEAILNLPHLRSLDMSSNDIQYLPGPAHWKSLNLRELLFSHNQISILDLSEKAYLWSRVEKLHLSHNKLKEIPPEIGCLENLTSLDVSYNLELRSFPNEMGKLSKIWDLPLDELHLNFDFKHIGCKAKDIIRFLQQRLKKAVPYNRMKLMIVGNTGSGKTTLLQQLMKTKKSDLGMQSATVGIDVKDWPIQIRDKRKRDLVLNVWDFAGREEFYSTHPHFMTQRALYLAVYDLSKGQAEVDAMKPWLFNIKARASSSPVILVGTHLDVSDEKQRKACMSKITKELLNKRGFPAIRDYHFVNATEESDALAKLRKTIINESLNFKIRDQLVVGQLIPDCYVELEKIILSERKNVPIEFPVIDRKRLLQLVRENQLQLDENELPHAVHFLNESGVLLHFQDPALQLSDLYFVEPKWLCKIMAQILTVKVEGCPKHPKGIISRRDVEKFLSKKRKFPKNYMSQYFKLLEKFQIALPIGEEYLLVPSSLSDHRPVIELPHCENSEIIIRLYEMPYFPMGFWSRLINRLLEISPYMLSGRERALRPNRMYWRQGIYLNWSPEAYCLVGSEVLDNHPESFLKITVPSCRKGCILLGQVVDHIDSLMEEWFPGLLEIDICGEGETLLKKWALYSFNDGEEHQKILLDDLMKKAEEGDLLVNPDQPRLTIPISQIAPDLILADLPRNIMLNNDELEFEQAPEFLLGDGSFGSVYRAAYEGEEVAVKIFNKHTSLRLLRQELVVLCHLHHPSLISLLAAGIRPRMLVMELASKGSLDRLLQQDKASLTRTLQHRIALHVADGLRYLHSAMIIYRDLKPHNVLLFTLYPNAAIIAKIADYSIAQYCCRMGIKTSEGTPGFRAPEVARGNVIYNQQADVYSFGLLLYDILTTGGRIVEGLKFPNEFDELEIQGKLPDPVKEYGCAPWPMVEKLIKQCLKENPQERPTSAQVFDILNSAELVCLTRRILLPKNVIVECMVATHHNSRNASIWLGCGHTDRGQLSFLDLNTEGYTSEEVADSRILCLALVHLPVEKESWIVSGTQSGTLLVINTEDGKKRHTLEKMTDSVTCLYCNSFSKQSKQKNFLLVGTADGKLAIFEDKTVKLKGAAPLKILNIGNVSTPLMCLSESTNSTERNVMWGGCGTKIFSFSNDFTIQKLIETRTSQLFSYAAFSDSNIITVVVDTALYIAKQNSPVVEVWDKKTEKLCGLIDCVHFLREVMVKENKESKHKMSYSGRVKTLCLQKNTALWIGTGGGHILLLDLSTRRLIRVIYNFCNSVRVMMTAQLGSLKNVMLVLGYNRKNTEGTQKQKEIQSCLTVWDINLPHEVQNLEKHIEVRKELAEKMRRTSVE

SMILES	IC50 [nM]
CC1(C2CCOC2)CC1C(=O)Nc1cc2cc(N3CCN(C4(C)COCC4O)CC3)c(Cl)cc2cn1 (single isomer, unassigned) [Ex-10.87, (1R,2R or 1S,2S, or 1R,2S, or 1S,2R)-N-[7-chloro-6-[4-((3R,4R or 3S,4S)-4-hydroxy-3-methyl-tetrahydrofuran-3-yl)piperazin-1-yl]-3-isoquinolyl]-2-methyl-2-tetrahydrofuran-3-yl-cyclopropanecarboxamide]	0.0813
CC1(C2CCOC2)CC1C(=O)Nc1cc2cc(N3CCN(C4(C)COCC4O)CC3)c(Cl)cc2cn1 (single isomer, unassigned) [Ex-10.88, (1R,2R or 1S,2S, or 1R,2S, or 1S,2R)-N-[7-chloro-6-[4-((3R,4R or 3S,4S)-4-hydroxy-3-methyl-tetrahydrofuran-3-yl)piperazin-1-yl]-3-isoquinolyl]-2-methyl-2-tetrahydrofuran-3-yl-cyclopropanecarboxamide]	0.182
CCC1C(C(=O)Nc2cc3cc(N4CCN(C5(C)COCC5F)CC4)c(Cl)cc3cn2)C1c1ccccn1 (single isomer, unassigned) [Ex-10.89, (1R,2R,3R, or 1R,2S,3R, or 1S,2R,3S, or 1S,2S,3S)-N-[7-chloro-6-[4-((3R,4R or 3S,4S)-4-fluoro-3-methyl-tetrahydrofuran-3-yl)piperazin-1-yl]-3-isoquinolyl]-2-ethyl-3-(2-pyridyl)cyclopropanecarboxamide]	0.0813
CCC1C(C(=O)Nc2cc3cc(N4CCN(C5(C)COCC5F)CC4)c(Cl)cc3cn2)C1c1ccccn1 (single isomer, unassigned) [Ex-10.90, (1R,2R,3R, or 1R,2S,3R, or 1S,2R,3S, or 1S,2S,3S)-N-[7-chloro-6-[4-((3R,4R or 3S,4S)-4-fluoro-3-methyl-tetrahydrofuran-3-yl)piperazin-1-yl]-3-isoquinolyl]-2-ethyl-3-(2-pyridyl)cyclopropanecarboxamide]	2.04
CC1(C)C(C(=O)Nc2cc3cc(N4CCN(C5(C)COCC5O)CC4)c(Cl)cc3cn2)C1C1CCCCO1 (single isomer, unassigned) [Ex-10.91, (1R,2R,3R, 1R,2S,3R, or 1S,2R,3S, or 1S,2S,3S)-N-[7-chloro-6-[4-((3R,4R or 3S,4S)-4-hydroxy-3-methyl-tetrahydrofuran-3-yl)piperazin-1-yl]-3-isoquinolyl]-2,2-dimethyl-3-tetrahydropyran-2-yl-cyclopropanecarboxamide]	0.0813
CC1(C)C(C(=O)Nc2cc3cc(N4CCN(C5(C)COCC5O)CC4)c(Cl)cc3cn2)C1C1CCCCO1 (single isomer, unassigned) [Ex-10.92, (1R,2R,3R, 1R,2S,3R, or 1S,2R,3S, or 1S,2S,3S)-N-[7-chloro-6-[4-((3R,4R or 3S,4S)-4-hydroxy-3-methyl-tetrahydrofuran-3-yl)piperazin-1-yl]-3-isoquinolyl]-2,2-dimethyl-3-tetrahydropyran-2-yl-cyclopropanecarboxamide]	1.95
CC1(c2ccccn2)CC1C(=O)Nc1cc2cc(N3CCN(C4(C)COCC4O)CC3)c(Cl)cc2cn1 (single isomer, unassigned) [Ex-11.1, (1R,2R)(3R,4R)— or (1R,2S)(3R,4R)— or (1S,2R)(3R,4R)— or (1S,2S)(3R,4R)— or (1R,2R)(3S,4S)— or (1R,2S)(3S,4S)— or (1S,2R)(3S,4S)— or (1S,2S)(3S,4S)-N-(7-chloro-6-(4-(4-hydroxy-3-methyltetrahydrofuran-3-yl)piperazin-1-yl)isoquinolin-3-yl)-2-methyl-2-(pyridin-2-yl)cyclopropane-1-carboxamide]	0.0813
CC1(c2ccccn2)CC1C(=O)Nc1cc2cc(N3CCN(C4(C)COCC4O)CC3)c(Cl)cc2cn1 (single isomer, unassigned) [Ex-11.2, (1R,2R)(3R,4R)— or (1R,2S)(3R,4R)— or (1S,2R)(3R,4R)— or (1S,2S)(3R,4R)— or (1R,2R)(3S,4S)— or (1R,2S)(3S,4S)— or (1S,2R)(3S,4S)— or (1S,2S)(3S,4S)-N-(7-chloro-6-(4-(4-hydroxy-3-methyltetrahydrofuran-3-yl)piperazin-1-yl)isoquinolin-3-yl)-2-methyl-2-(pyridin-2-yl)cyclopropane-1-carboxamide]	45.7
CC1C(C(=O)Nc2cc3cc(N4CCN(C5(C)COCC5O)CC4)c(Cl)cc3cn2)C1c1ccccn1 (single isomer, unassigned) [Ex-11.3, (1R,2R,3R, or 1R,2S,3R, or 1S,2R,3S, or 1S,2S,3S)-N-(7-chloro-6-(4-((3R,4R or 3S,4S)-4-hydroxy-3-methyltetrahydrofuran-3-yl)piperazin-1-yl)isoquinolin-3-yl)-2-methyl-3-(pyridin-2-yl)cyclopropane-1-carboxamide]	0.0813
CC1C(C(=O)Nc2cc3cc(N4CCN(C5(C)COCC5O)CC4)c(Cl)cc3cn2)C1c1ccccn1 (single isomer, unassigned) [Ex-11.4, (1R,2R,3R, or 1R,2S,3R, or 1S,2R,3S, or 1S,2S,3S)-N-(7-chloro-6-(4-((3R,4R or 3S,4S)-4-hydroxy-3-methyltetrahydrofuran-3-yl)piperazin-1-yl)isoquinolin-3-yl)-2-methyl-3-(pyridin-2-yl)cyclopropane-1-carboxamide]	0.977
CC1(N2CCN(c3cc4cc(NC(=O)C5CCC5c5ccccn5)ncc4cc3Cl)CC2)COCC1O (single isomer, unassigned) [Ex-11.5, (1R,2R or 1S,2S)-N-(7-chloro-6-(4-((3R,4R or 3S,4S)-4-hydroxy-3-methyltetrahydrofuran-3-yl)piperazin-1-yl)isoquinolin-3-yl)-2-(pyridin-2-yl)cyclobutane-1-carboxamide]	0.0813
CC1(N2CCN(c3cc4cc(NC(=O)C5CCC5c5ccccn5)ncc4cc3Cl)CC2)COCC1O (single isomer, unassigned) [Ex-11.6, (1R,2R or 1S,2S)-N-(7-chloro-6-(4-((3R,4R or 3S,4S)-4-hydroxy-3-methyltetrahydrofuran-3-yl)piperazin-1-yl)isoquinolin-3-yl)-2-(pyridin-2-yl)cyclobutane-1-carboxamide]	0.132
CCc1cc2cnc(NC(=O)C3CC34CCOCC4)cc2cc1N1CCN(C2(C)COCC2O)CC1 (single isomer, unassigned) [Ex-12, (R or S)-N-(7-ethyl-6-(4-(4-(3R,4R or 3S,4S)-hydroxy-3-methyltetrahydrofuran-3-yl)piperazin-1-yl)isoquinolin-3-yl)-6-oxaspiro[2.5]octane-1-carboxamide]	0.525
COc1cc2cnc(NC(=O)C3CC34CCOCC4)cc2cc1N1CCN(C2(C)COCC2O)CC1 (single isomer, unassigned) [Ex-13]	3.39
C[C@H]1CN(C2(C)COCC2O)CCN1c1cc2cc(NC(=O)C3CC34CCOCC4)ncc2cc1Cl (single isomer, unassigned) [Ex-14.1, N-(7-chloro-6-((2R or 2S)-4-(4-(3R,4R or 3S,4S)-hydroxy-3-methyltetrahydrofuran-3-yl)-2-methylpiperazin-1-yl)isoquinolin-3-yl)-6-oxaspiro[2.5]octane-1-carboxamide]	87.1
C[C@H]1CN(C2(C)COCC2O)CCN1c1cc2cc(NC(=O)C3CC34CCOCC4)ncc2cc1Cl (single isomer, unassigned) [Ex-14.2, N-(7-chloro-6-((2R or 2S)-4-(4-(3R,4R or 3S,4S)-hydroxy-3-methyltetrahydrofuran-3-yl)-2-methylpiperazin-1-yl)isoquinolin-3-yl)-6-oxaspiro[2.5]octane-1-carboxamide]	0.0813
